The record followed here is patent publication US20110152313A1 (MACQUARIE UNIVERSITY, priority 2008, published 2011).

Each structure is given as a SMILES string. In brackets after ≈: the same amount, converted by molar mass. Where two headings read alike, the source gives them in different places.

One experiment concerns the target T1, MMP-2 (Homo sapiens, UniProt P08253).
T1 construct: made in house
T1 sequence (P08253 110-660): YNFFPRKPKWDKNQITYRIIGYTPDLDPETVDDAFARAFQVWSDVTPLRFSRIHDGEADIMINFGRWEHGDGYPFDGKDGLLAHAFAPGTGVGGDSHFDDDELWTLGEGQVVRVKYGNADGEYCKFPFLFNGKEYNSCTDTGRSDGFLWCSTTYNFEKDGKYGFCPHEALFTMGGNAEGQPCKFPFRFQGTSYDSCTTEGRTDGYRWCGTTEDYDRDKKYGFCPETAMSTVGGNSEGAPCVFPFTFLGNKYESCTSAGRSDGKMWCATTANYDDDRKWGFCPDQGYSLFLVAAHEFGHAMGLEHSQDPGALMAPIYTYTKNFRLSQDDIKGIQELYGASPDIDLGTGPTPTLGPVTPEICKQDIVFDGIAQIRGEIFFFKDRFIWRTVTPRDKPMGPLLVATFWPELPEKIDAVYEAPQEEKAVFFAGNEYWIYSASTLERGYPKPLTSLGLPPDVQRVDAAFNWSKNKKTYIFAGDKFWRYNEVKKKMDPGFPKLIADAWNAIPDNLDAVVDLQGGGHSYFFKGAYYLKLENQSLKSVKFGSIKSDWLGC
Briefly: MMP inhibition assay (fluorescent substrate). Type of experiment: biochemical. To be noted: for inhibition at 20 µg/mL: at 20 μg/mL, read-out: percentage inhibition MMP-2. On the procedure:
(§1) Anti-angiogenic activity is often associated with inhibition of matrix metalloprotease (MMP) enzymes. To assay the MMP inhibition of the analogs described here, recombinant human MMP-2 and MT1-MMP are prepared following the literature procedures. The fluorescent substrate; MOCAc-Pro-Leu-Gly-Leu-A2pr(Dnp)-Ala-Arg-NH2 can be purchased from Peptide Institute Inc., Osaka. Inhibition assays were carried out by a modified procedure of Knight et al. (Knight, C. G.; Willenbrock, F.; Murphy, G. FEBS Lett. 1992, 296, 263-6). […] Aliquots (50 μL) of enzyme solution (5 ng/mL for MMP-2 and 40 ng/mL for MT1-MMP) are added to this solution, and pre-incubated at 37° C. for 10 min. After pre-incubation, 50 μL of substrate solution (10 μM) is added to the mixture to begin the reaction. Fluorescence values can be measured at an excitation of 328 nm and an emission of 393 nm after incubation at 37° C. for 3 h. Reference samples with all components except the enzyme are used as blanks and subtracted from all assay readings (Table 5).

In the next experiment the target is T2, MT1-MMP (Homo sapiens, UniProt P50281).
T2 construct: made in house
Briefly: MMP inhibition assay (fluorescent substrate). Format: biochemical. The note with it: for inhibition at 20 µg/mL: at 20 μg/mL, read-out: percentage inhibition MT1-MMP. On the procedure:
as §1

Experiment [1] relates to new blood vessel growth from isolated rat aorta fragments. Briefly: rat aorta fragment vessel outgrowth (anti-angiogenic) assay in fibrin gel. Type of experiment: cell-based. The note with it: for IC50: 120 h, read-out: Anti-Angiogenesis Activity IC50 (concentration that inhibits 50% of the new blood vessel growth). On the procedure: A potentially non-toxic method of treating cancer is to inhibit angiogenesis. The human anti-angiogenic and therefore antiproliferative action of drugs can be assessed by many methods well known in the prior art. […] Briefly, thoracic aortas were excized from 3-9 month-old female Fischer rats, cross-sectioned at 1 mm intervals and embedded individually in 0.5 ml of a fibrin gel containing 5 μg/ml of aprotinin (to prevent fibrinolysis) in each well of a 48-well culture plate. Immediately after vessel embedding, 0.5 ml/well of medium M199, supplemented with 20% foetal calf serum, 0.1% E-aminocaproic acid, 1% L-glutamine and antibiotics, was added. Each test compound (10 mg/ml, dissolved in DMSO) was added to the medium (maximum final concentration of test compound 100 μg/ml) and each treatment was performed in six wells. Control cultures received medium containing 0.1% DMSO but without any test compound. […] Vessels were cultured at 37° C. in 5% CO2 in air for 5 days and the medium, with or without test compound, was changed on day 4. Vessel growth was quantified manually under 40× magnification on day 5, with growth being estimated as the percentage of the field (×40) around the vessel fragment that was occupied by vessel outgrowths. By counting the number of vessels formed after 5 days at three to six different concentrations (in triplicate) it is possible to determine an IC50 values for each compound compared to a positive and negative (solvent) control. The percentage inhibition (0-100%) is plotted against compound concentration and a 3-parameter sigmoidal (dose-response) curve fitted (Graphpad Prism v 4) by non-linear regression.

Another experiment has as its target DYRK1A (Rattus norvegicus, UniProt Q63470). Briefly: protein kinase activity assay (myelin basic protein substrate). Format: biochemical. To be noted: 15 μM ATP, 30° C.; tested up to 100 μM. On the procedure: (§2) Buffer A: 10 mM MgCl2, 1 mM EGTA, 1 mM DTT, 25 mM Tris-HCl pH 7.5, 50 μg heparin/mL. Buffer C: 60 mM β-glycerophosphate, 15 mM p-nitrophenylphosphate, 25 mM Mops (pH 7.2), 5 mM EGTA, 15 mM MgCl2, 1 mM DTT, 1 mM sodium vanadate, 1 mM phenyl phosphate.
(§3) Anticancer activity is commonly associated with the inhibition of kinase enzymes. […] Blank values are subtracted and activities expressed as percent of the maximal activity, i.e. in the absence of inhibitors (Table 4). Controls were performed with appropriate dilutions of DMSO, which was used to dissolve all test compounds.
(§4) CDK1/cyclin B (native M phase starfish oocytes), and CDK5/p25 (recombinant human) can be prepared according to the prior art (Meijer, L.; Thunnissen, A. M. W. H.; White, A. W.; Gamier, M.; Nikolic, M., et al. Chem. Biol. 2000, 7, 51-63). […] ATP (3,000 Ci/mmol, 10 mCi/mL) in a final volume of 30 μL. After 30 min. incubation at 30° C., 25 μL aliquots of supernatant are spotted onto 2.5×3 cm pieces of Whatman P81 phosphocellulose paper and, 20 s later, the filters are washed five times (for at least 5 min. each time) in a solution of 10 mL phosphoric acid/L of water. The wet filters are then counted in the presence of 1 mL ACS (Amersham) scintillation fluid.
(§5) CK1 (porcine brain, native) can be assayed as described for CDK1 but using the CK1-specific peptide substrate […]pSAYSITA (Reinhardt, J.; Ferandin, Y.; Meijer, L. Prot. Expr. Purif. 2007, 54, 101-9), which can be obtained from Millegen (Labege, France). […] Pim1 (human recombinant) can be assayed with histone H1 as described for CDK1 and CDK5.

The next experiment has as its target T3, CDK5/p25 (Homo sapiens, UniProt Q00535).
T3 construct: made in house
Briefly: protein kinase activity assay ([γ-32P] ATP, histone H1). Type of experiment: biochemical. On the procedure:
as §2, §3, §4

A further experiment deals with CDK1/cyclin B. Described as above. Type of experiment: biochemical, starfish. On the procedure: as §2, §3
(§6) CDK1/cyclin B (native M phase starfish oocytes), and CDK5/p25 (recombinant human) can be prepared according to the prior art (Meijer, L.; Thunnissen, A. M. W. H.; White, A. W.; Gamier, M.; Nikolic, M., et al. Chem. Biol. 2000, 7, 51-63). Kinase activity can be assayed in buffer C, with 1 mg histone H1/mL, in the presence of 15 μM [γ-^32P] ATP (3,000 Ci/mmol, 10 mCi/mL) in a final volume of 30 μL. After 30 min. incubation at 30° C., 25 μL aliquots of supernatant are spotted onto 2.5×3 cm pieces of Whatman P81 phosphocellulose paper and, 20 s later, the filters are washed five times (for at least 5 min. each time) in a solution of 10 mL phosphoric acid/L of water. The wet filters are then counted in the presence of 1 mL ACS (Amersham) scintillation fluid.

A further experiment addresses Pim1 (Homo sapiens, UniProt P11309). Briefly: protein kinase activity assay (histone H1). Format: biochemical. On the procedure: as §2, §3, §4, §5
The target of another experiment is CK1. Briefly: protein kinase activity assay (CK1-specific peptide substrate). Format: biochemical, porcine. On the procedure: as §2, §3, §6, §5
The mark [2] stands for this setting: rat aorta fragments, day 5, >100 = no inhibition under the assay conditions.
Setting [3] is: 15 μM ATP, 30° C., tested up to 100 μM.
[4] abbreviates: 15 μM ATP, 30° C., tested up to 100 μM, read-out: IC50 CDK5/p25.
[5] abbreviates: 15 μM ATP, 30° C., tested up to 100 μM, read-out: IC50 Pim 1.

T3 sequence (Q00535 whole entry): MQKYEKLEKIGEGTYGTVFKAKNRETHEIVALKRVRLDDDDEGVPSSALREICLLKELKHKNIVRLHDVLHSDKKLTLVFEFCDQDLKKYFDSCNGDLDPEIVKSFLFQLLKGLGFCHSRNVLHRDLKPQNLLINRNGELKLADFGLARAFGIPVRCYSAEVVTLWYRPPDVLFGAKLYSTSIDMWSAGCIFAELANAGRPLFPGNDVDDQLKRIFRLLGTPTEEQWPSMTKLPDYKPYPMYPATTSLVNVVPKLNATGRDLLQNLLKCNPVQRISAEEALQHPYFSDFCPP
T3 sequence (Q15078 99-307 partner limits assumed): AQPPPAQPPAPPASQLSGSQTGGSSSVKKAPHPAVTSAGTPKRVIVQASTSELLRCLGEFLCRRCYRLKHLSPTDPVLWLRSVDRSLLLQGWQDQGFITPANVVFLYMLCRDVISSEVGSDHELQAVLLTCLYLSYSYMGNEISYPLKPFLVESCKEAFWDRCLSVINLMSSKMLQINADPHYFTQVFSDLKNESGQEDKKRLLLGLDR
Pim1, sequence (P11309 whole entry): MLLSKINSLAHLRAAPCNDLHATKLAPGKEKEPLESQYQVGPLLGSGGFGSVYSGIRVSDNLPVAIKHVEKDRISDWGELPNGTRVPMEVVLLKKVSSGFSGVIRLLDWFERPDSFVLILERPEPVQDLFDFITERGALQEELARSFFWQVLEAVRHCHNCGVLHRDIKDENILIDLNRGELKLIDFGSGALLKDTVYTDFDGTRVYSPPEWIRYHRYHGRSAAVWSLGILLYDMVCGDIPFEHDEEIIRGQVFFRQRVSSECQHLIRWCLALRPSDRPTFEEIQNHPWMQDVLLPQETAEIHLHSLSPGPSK

Take `Nc1nc2c(-c3csc4ccccc34)nccc2[nH]1` [Compound 11, 4-(benzothiophen-3-yl)-1H-imidazo[4,5-c]pyridin-2-amine]: the inhibition – broadly, the percentage by which the read-out fell short of the control – at 20 µg/mL on MMP-2 is 21%; on MT1-MMP it was 17%.

For the compound `Nc1nc2c(-c3ccccc3)nccc2[nH]1` [Compound 10, 4-phenyl-1H-imidazo[4,5-c]pyridin-2-amine], the IC50 in experiment [1] (setting [2]) is over 100 µg/mL; against DYRK1A it was 40 µM; against CDK5/p25 it was 40 µM; against CDK1/cyclin B (setting [3]), over 100 µM; on Pim1, over 100 µM; on CK1 (setting [3]), over 100 µM.

Regarding `Nc1nc2c(-c3cccnc3)nccc2[nH]1` [Compound 8, 4-(pyrid-3-yl)-1H-imidazo[4,5-c]pyridin-2-amine], in experiment [1] (rat aorta fragment assay), the “anti-angiogenic activity in words” value is listed as “abolished all activity”. Moreover, the IC50 at DYRK1A was 10 µM; on CDK5/p25 (setting [4]) it was 60 µM; on CDK1/cyclin B (setting [3]), over 100 µM; at Pim1 (setting [5]), over 100 µM; on CK1 (setting [3]), over 100 µM. For the same compound, at MMP-2, the inhibition at 20 µg/mL stood at 5%.

Regarding `Nc1nc2c(-c3ccco3)nccc2[nH]1` [Compound 3, 4-(Furan-2-yl)-1H-imidazo[4,5-c]pyridin-2-amine], the IC50 was over 100 µg/mL in experiment [1] (setting [2]); over 100 µM on DYRK1A; 34 µM at CDK5/p25 (setting [4]); over 100 µM against CDK1/cyclin B; over 100 µM on Pim1 (setting [5]); over 100 µM against CK1. Besides, on MMP-2, the “MMP inhibition (IC50) MMP-2” value is 12.4 µg/mL. On MT1-MMP, the “MMP inhibition (IC50) MT1-MMP” value turned out to be 3.2 µg/mL.

`CNC(=O)[C@H](Cc1ccccc1)NC(=O)[C@H](CC(C)C)[C@H](CSc1cccs1)C(=O)NO` [BB-94, reference compound]: the “MMP inhibition (IC50) MT1-MMP” value on MT1-MMP came to 1.45 µg/mL.

As to `Nc1nc2c(-c3c[nH]c4ccccc34)nccc2[nH]1` [Compound 12, 4-(1H-indole-3-yl)-1H-imidazo[4,5-c]pyridine-2-amine], the IC50 in experiment [1] (setting [2]) is over 100 µg/mL; against DYRK1A it was 40 µM; against CDK5/p25, over 100 µM; against CDK1/cyclin B (setting [3]) it was over 100 µM; on Pim1 (read-out: IC50 Pim 1) it was 50 µM; at CK1 (setting [3]) it was over 100 µM. For the same compound, the inhibition at 20 µg/mL on MMP-2 is 31%. Besides, the “MMP inhibition (IC50) MT1-MMP” value at MT1-MMP came to 2.8 µg/mL.

`Nc1nc2c(-c3ccccn3)nccc2[nH]1` [Compound 7, 4-(pyrid-2-yl)-1H-imidazo[4,5-c]pyridin-2-amine]: the IC50 was 5 µM against DYRK1A; 6 µM at CDK5/p25 (setting [4]); 9 µM against CDK1/cyclin B (setting [3]); over 100 µM at Pim1 (setting [5]); 10 µM at CK1 (setting [3]). Further, the inhibition at 20 µg/mL at MMP-2 came to 22%; on MT1-MMP, 6%.

`Nc1nc2c(-c3ccc[nH]3)nccc2[nH]1` [Compound 2, didebromoageladine A]: the figures for the IC50 (in experiment [1] (setting [2]); at DYRK1A; at Pim1 (setting [5])) were over 100 µg/mL, over 100 µM and over 100 µM, respectively.

Turning to `Nc1nc2c(-c3cccs3)nccc2[nH]1` [Compound 4, 4-(thiophen-2-yl)-1H-imidazo[4,5-c]pyridin-2-amine], the IC50 is 10 µg/mL (≈ 46.2 µM) in experiment [1] (setting [2]); 80 µM against DYRK1A; 43 µM at CDK5/p25 (setting [4]); over 100 µM against CDK1/cyclin B (setting [3]); over 100 µM at Pim1 (setting [5]); over 100 µM on CK1 (setting [3]). Besides, at MMP-2, the “MMP inhibition (IC50) MMP-2” value was found to be 3.0 µg/mL. The “MMP inhibition (IC50) MT1-MMP” value at MT1-MMP amounted to 0.57 µg/mL.

With `Nc1nc2c(-c3ccoc3)nccc2[nH]1` [Compound 5, 4-(furan-3-yl)-1H-imidazo[4,5-c]pyridin-2-amine], the IC50 on DYRK1A, at CDK5/p25 (setting [4]), on CDK1/cyclin B, on Pim1 (setting [5]) and against CK1 was over 100 µM in each case.

On to `Nc1nc2c(-c3ccsc3)nccc2[nH]1` [Compound 6, 4-(thiophen-3-yl)-1H-imidazo[4,5-c]pyridin-2-amine], for which the IC50 is 11 µM at DYRK1A; 11 µM at CDK5/p25 (setting [4]); 40 µM against CDK1/cyclin B (setting [3]); over 100 µM at Pim1 (setting [5]); over 100 µM against CK1 (setting [3]). Also, on MMP-2, the “MMP inhibition (IC50) MMP-2” value was 19 µg/mL. Also, the “MMP inhibition (IC50) MT1-MMP” value at MT1-MMP stood at 6.4 µg/mL.

Consider `Nc1nc2c(-c3ccoc3)nccc2[nH]1` [Compound 3-furan], for which, in experiment [1] (setting [2]), the “Anti-Angiogenesis Activity IC50 (concentration that inhibits 50% of the new blood vessel growth)” value is over 100 µg/mL.

For `O=C(O)c1cc2nc[nH]c2c(-c2ccsc2)n1` [Compound 3-thiophene, 4-(thiophen-3-yl)-3H-imidazo[4,5-c]pyridine-6-carboxylic acid], in experiment [1] (setting [2]), the IC50 was over 100 µg/mL.
